Where two headings read alike, the source gives them in different places.
Columns and labels:
[1] = biological target: human Smoothened receptor (Homo sapiens, UniProt Q99835); test: Smo binding assay, displacement of radio-labeled smoothened agonist, filter binding format (human); details: displacement of small molecule agonist of Smoothened, read-out: Human Smo bdg., IC50
From the text: A Smo binding assay was developed using radio-labeled smoothened agonist for compound competition. Table 9 lists the IC50 for displacement of a small molecule agonist of Smoothened determined in a filter binding format for the mouse and human Smoothened receptor.

Gli-luciferase activity = test: Reporter gene assay (RGA) in TMHh12 cells, antagonism of Gli-luciferase activity in the presence of a Smo agonist; type: cell-based
Method: Activity of the compounds was evaluated using a reporter gene assay (RGA) in TMHh12 cells.

[2] = biological target: mouse Smoothened receptor (Mus musculus, UniProt P56726); test: Smo binding assay, displacement of radio-labeled smoothened agonist, filter binding format (mouse); details: displacement of small molecule agonist of Smoothened, read-out: Mouse Smo bdg., IC50
Chain of mouse Smoothened receptor (P56726 33-793): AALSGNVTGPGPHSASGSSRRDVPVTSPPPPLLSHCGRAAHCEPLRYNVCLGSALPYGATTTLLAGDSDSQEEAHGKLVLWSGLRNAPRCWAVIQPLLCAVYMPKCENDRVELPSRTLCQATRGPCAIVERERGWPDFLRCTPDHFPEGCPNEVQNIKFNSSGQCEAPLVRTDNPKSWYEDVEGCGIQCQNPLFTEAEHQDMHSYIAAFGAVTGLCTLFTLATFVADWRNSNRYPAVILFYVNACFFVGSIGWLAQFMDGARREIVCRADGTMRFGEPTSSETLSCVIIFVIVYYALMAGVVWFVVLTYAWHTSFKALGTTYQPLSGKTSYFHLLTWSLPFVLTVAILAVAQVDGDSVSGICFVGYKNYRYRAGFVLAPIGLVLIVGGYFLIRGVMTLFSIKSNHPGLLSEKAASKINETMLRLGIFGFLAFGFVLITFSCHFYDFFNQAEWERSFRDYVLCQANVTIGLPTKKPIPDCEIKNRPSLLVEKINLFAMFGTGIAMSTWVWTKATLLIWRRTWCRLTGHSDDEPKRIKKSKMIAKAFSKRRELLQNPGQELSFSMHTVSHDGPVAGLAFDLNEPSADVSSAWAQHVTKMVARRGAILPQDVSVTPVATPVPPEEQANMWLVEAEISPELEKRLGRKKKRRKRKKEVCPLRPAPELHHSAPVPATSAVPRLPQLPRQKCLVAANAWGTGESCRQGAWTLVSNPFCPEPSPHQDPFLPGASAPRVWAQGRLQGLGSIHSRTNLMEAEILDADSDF
From the text: A Smo binding assay was developed using radio-labeled smoothened agonist for compound competition.

[3] = 25 nM small molecule Smo agonist, read-out: RGA (25 nM Smo agonist) IC50
[4] = read-out: RGA (1 nM Smo agonist) IC50, 1 nM small molecule Smo agonist

Chain of human Smoothened receptor (Q99835 28-787): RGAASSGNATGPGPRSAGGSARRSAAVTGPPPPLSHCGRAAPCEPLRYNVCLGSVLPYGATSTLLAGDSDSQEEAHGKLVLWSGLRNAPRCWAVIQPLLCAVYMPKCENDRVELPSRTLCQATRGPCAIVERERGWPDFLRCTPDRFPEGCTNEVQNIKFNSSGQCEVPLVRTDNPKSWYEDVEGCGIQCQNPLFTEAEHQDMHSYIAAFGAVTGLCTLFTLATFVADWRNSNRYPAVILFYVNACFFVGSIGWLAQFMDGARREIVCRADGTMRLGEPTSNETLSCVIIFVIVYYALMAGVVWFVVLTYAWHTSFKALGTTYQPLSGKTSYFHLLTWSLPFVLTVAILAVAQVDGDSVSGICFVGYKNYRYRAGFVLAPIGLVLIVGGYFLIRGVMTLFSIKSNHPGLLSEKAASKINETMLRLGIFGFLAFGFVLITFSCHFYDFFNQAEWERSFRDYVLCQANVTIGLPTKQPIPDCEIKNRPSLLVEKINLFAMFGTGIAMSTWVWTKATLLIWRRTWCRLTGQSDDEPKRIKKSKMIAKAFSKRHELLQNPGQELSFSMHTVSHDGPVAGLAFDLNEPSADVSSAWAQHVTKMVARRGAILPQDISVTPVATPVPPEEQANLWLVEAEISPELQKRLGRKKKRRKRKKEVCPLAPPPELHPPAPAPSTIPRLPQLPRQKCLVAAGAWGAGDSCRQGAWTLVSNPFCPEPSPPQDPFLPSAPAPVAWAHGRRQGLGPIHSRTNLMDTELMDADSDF

| Compound | IC50 [1] [nM] | IC50 (Gli-luciferase activity; [3]) [nM] | IC50 (Gli-luciferase activity; [4]) [nM] | IC50 [2] [nM] |
| --- | --- | --- | --- | --- |
| CC(C)(O)c1ccc(N2CCN(c3nnc(Cc4ccc(F)cc4F)c4ccccc34)CC2)nc1 [Example 193] | < 100 | < 100 | < 100 | < 100 |
| Cc1ccccc1Cc1nnc(N2CCN(c3ccc(C(C)(C)O)cn3)CC2)c2ccccc12 [Example 194] | < 100 | 100 to 1000 | < 100 | < 100 |
| C[C@H]1CN(c2ccc(C(C)(C)O)cn2)CCN1c1nnc(Cc2ccc(F)cc2F)c2ccccc12 [Example 195] | < 100 | < 100 | < 100 | < 100 |
| C[C@H]1CN(c2ccc(C(C)(C)O)cn2)CCN1c1nnc(Cc2ccccc2Cl)c2ccccc12 [Example 196] | < 100 | < 100 | < 100 | < 100 |
| CN(CCO)C(=O)c1ccc(N2CCN(c3nnc(Cc4ccc(F)cc4)c4ccccc34)CC2)nc1 [Example 198, 6-{4-[4-(4-Fluoro-benzyl)-phthalazin-1-yl]-piperazin-1-yl}-N-(2-hydroxyethyl)-N-methyl-nicotinamide] | < 100 | 100 to 1000 | < 100 | < 100 |
| CN(CCO)C(=O)c1ccc(N2CCN(c3nnc(Cc4ccc(F)cc4F)c4ccccc34)CC2)nc1 [Example 199] | 100 to 1000 | 100 to 1000 | < 100 | 100 to 1000 |
| CN(CCO)C(=O)c1ccc(N2CCN(c3nnc(Cc4ccccc4Cl)c4ccccc34)CC2)nc1 [Example 200] | < 100 | 100 to 1000 | < 100 | < 100 |
| CN(CCO)C(=O)c1ccc(N2CCN(c3nnc(Cc4ccc(Cl)c(Cl)c4)c4ccccc34)CC2)nc1 [Example 201] | < 100 | 100 to 1000 | < 100 | < 100 |
| CCOC(=O)c1ccc(N2CCN(c3nnc(CN4CCOCC4)c4ccccc34)CC2)nc1 [Example 203, 6-[4-(4-Morpholin-4-ylmethyl-phthalazin-1-yl)-piperazin-1-yl]-nicotinic acid ethyl ester] | 100 to 1000 | 1000 to 10000 | 100 to 1000 | 100 to 1000 |
| CCC(=O)NCc1ccc(N2CCN(c3nnc(Cc4ccccc4)c4ccccc34)CC2)nc1 [Example 207] | 100 to 1000 | 100 to 1000 | < 100 | 100 to 1000 |
| COCC(=O)NCc1ccc(N2CCN(c3nnc(Cc4ccccc4)c4ccccc34)CC2)nc1 [Example 208] | 100 to 1000 | < 100 | < 100 | 100 to 1000 |
| CC(C)CC(=O)NCc1ccc(N2CCN(c3nnc(Cc4ccccc4)c4ccccc34)CC2)nc1 [Example 210] | < 100 | < 100 | < 100 | < 100 |
| CC(C)OC(=O)NCc1ccc(N2CCN(c3nnc(Cc4ccccc4)c4ccccc34)CC2)nc1 [Example 211] | < 100 | 100 to 1000 | < 100 | < 100 |
| CN(C)CC(=O)NCc1ccc(N2CCN(c3nnc(Cc4ccccc4)c4ccccc34)CC2)nc1 [Example 212] | < 100 | 100 to 1000 | < 100 | < 100 |
| CC(O)CC(=O)NCc1ccc(N2CCN(c3nnc(Cc4ccccc4)c4ccccc34)CC2)nc1 (centres unmarked) [Example 213] | 100 to 1000 | 100 to 1000 | < 100 | 100 to 1000 |
| CC(=O)NCc1ccc(N2CCN(c3nnc(Cc4ccccc4)c4ccccc34)[C@@H](C)C2)nc1 [Example 216] | < 100 | < 100 | < 100 | < 100 |
| CN(C)Cc1ccc(N2CCN(c3nnc(Cc4ccccc4)c4ccccc34)CC2)nc1 [Example 217, {6-[4-(4-Benzyl-phthalazin-1-yl)-piperazin-1-yl]-pyridin-3-ylmethyl}-dimethyl-amine] | 1000 to 10000 | 1000 to 10000 | < 100 | 1000 to 10000 |
